From patent US8575091B1, “Amylin analogues and pharmaceutical compositions thereof” (Novo Nordisk A/S, priority 2012, dated 2013)
Read-outs that look alike come from different tables or passages of the source. Numbered stars: 1 amine (or outer) side, 2 acyl side, 3 side chain; on linkers, the order of the positions; unused ones are H or OH. Bridge positions count the residues as written; N and C are the ends. Side chains are listed from the residue outwards. Peptide text beside a SMILES is read from it. * marks the point of attachment. C20 diacid = O=C(O)CCCCCCCCCCCCCCCCCCC(=O)*; γGlu = O=C(O)[C@H](CCC(=O)[*:2])N[*:1]

Experiments:
[1] = biological target: T1, human amylin receptor (amylin 3(a) receptor: human calcitonin receptor + RAMP-3) (Homo sapiens, UniProt O60896+P30988); assay: Assay (II)a functional assay, human amylin receptor (CRE luciferase, BHK cells); format: cell-based; conditions: for EC50: read-out: hAmylin-R funct. EC50
T1 construct: expressed in transfected cells
T1 sequence (P30988 25-474): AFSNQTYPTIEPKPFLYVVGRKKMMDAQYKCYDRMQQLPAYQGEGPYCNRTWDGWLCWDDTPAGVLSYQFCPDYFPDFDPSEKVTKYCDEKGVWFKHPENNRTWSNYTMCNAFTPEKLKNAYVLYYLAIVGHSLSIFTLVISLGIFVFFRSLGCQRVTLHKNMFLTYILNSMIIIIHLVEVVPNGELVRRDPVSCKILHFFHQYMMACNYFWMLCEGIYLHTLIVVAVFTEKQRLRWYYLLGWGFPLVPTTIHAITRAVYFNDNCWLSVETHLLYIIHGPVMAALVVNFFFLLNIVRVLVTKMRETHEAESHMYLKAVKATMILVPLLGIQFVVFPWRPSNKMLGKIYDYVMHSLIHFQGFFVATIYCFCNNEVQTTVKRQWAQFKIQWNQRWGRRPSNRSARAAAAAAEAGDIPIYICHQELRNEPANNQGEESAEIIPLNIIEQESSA
T1 sequence (O60896 24-148 partner): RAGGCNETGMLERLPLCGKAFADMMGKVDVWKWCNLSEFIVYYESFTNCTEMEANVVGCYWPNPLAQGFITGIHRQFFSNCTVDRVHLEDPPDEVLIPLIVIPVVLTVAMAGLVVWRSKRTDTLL

[2] = biological target: T2, human calcitonin receptor (Homo sapiens, UniProt P30988); assay: Assay (II)a functional assay, human calcitonin receptor (CRE luciferase, BHK cells);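 also: luminescence from a CRE-driven luciferase reporter, read by single photon counting after cells were exposed to test samples for 3 h at 37 °C under 5% CO2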; format: cell-based; conditions: read-out: hCTR funct. EC50
T2 construct: expressed in transfected cells
T2 sequence (P30988 25-474): T1 sequence (P30988 25-474)

human amylin receptor = biological target: T3, human amylin receptor (Homo sapiens, UniProt O60896+P30988); assay: Assay (V) binding to the human amylin receptor (SPA, 125I-rat amylin); conditions: for IC50: human amylin receptor membranes, SPA, read-out: hAmylin-R bind IC50
T3 construct: expressed in transfected cells
T3 sequence (P30988 25-474): T1 sequence (P30988 25-474)
T3 sequence (O60896 24-148 partner): T1 sequence (O60896 24-148 partner)
How it was run: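 SPA competition binding on membranes from Amylin 3(a)/CRE-luc cells, 35 ng/μL membranes with 0.05 mg/well beads. Buffer 50 mM Hepes pH 7.4, 1 mM CaCl2, 5 mM MgCl2, 0.1% OA, 0.02% Tween20. IC50 from one-site competition fit as affinity measure.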

[3] = biological target: T2, human calcitonin receptor; assay: Assay (VII) binding to the human calcitonin receptor (SPA, 125I-Calcitonin); conditions: read-out: hCTR bind IC50;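 also: cell membranes coupled to SPA beads, competitive displacement read by scintillation counting, IC50 derived from a one-site competition fit as a measure of receptor affinity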
[4] = Table 6, human functional selectivity (hCTR EC50 / hAmylin-R EC50)
[5] = Table 6a, human functional selectivity (hCTR EC50 / hAmylin-R EC50), at least 5
[6] = Table 6j, hCTR funct. EC50 / hAmylin-R funct. EC50
[7] = Table 6k, hCTR funct. EC50 / hAmylin-R funct. EC50
[8] = functional assay, human amylin receptor

Row | SMILES | Ratio hCT/hAmylin funct. [1, 4] | Ratio hCT/hAmylin funct. [1, 5] | Ratio hCT/hAmylin funct. [1, 6] | Ratio hCT/hAmylin funct. [1, 7] | EC50 [1, 8] | EC50 [2] | IC50 (human amylin receptor) | IC50 [3] | Ratio hCT/hAmylin binding (human amylin receptor; Table 7b, human calcitonin receptor binding IC50 divided by human amylin receptor binding IC50) | Ratio hCT/hAmylin binding (human amylin receptor; Table 7c, human calcitonin receptor binding IC50 divided by human amylin receptor binding IC50) | Ratio hCT/hAmylin binding (human amylin receptor; human binding ratio, included for comparison) | Ratio hCT/hAmylin funct. ([1]; Table 6i, hCTR funct. EC50 / hAmylin-R funct. EC50) | EC50 ([1]; Table 6i, human amylin receptor functional)
1 | CC[C@H](C)[C@H](NC(=O)[C@H](C)NC(=O)CNC(=O)[C@H](Cc1ccccc1)NC(=O)[C@H](CC(N)=O)NC(=O)[C@@H]1CCCN1C(=O)[C@H](CO)NC(=O)[C@H](CO)NC(=O)[C@H](Cc1c[nH]cn1)NC(=O)[C@H](CCCNC(=N)N)NC(=O)[C@H](CC(C)C)NC(=O)[C@H](Cc1ccccc1)NC(=O)[C@H](CC(N)=O)NC(=O)[C@H](C)NC(=O)[C@H](CC(C)C)NC(=O)[C@H](CCCNC(=N)N)NC(=O)[C@H](CCC(N)=O)NC(=O)[C@@H](NC(=O)[C@H](C)NC(=O)[C@@H]1CSSC[C@H](NC(=O)[C@H](CCCNC(=N)N)NC(=O)CNC(=O)CC[C@H](NC(=O)CCCCCCCCCCCCCCCCCCC(=O)O)C(=O)O)C(=O)N[C@@H](CC(N)=O)C(=O)N[C@@H]([C@@H](C)O)C(=O)N[C@@H](C)C(=O)N[C@@H]([C@@H](C)O)C(=O)N1)[C@@H](C)O)C(=O)N1CCC[C@H]1C(=O)N[C@@H](CO)C(=O)N[C@@H](CO)C(=O)N[C@H](C(=O)N[C@@H](CC(N)=O)C(=O)N[C@H](C(=O)NCC(=O)N[C@@H](CO)C(=O)N[C@@H](Cc1c[nH]cn1)C(=O)N[C@H](C(=O)N[C@@H](Cc1ccc(O)cc1)C(N)=O)[C@@H](C)O)C(C)C)[C@@H](C)O [Example 47] ({C20 diacid-γGlu}-GRCNTATCATQRLANFLRHSSPNFGAIPSSTNVGSHTY-NH2; disulfide 3-8) | 6.0 | 6.0 | 6.0 | 6.0 | 0.222 nM | 1.32 nM | 0.344 nM | 15.5 nM |  |  |  |  | 
2 | CC[C@H](C)[C@H](NC(=O)[C@H](C)NC(=O)CNC(=O)[C@H](Cc1ccccc1)NC(=O)[C@H](CC(N)=O)NC(=O)[C@@H]1CCCN1C(=O)[C@H](CO)NC(=O)[C@H](CO)NC(=O)[C@H](Cc1c[nH]cn1)NC(=O)[C@H](CCCNC(=N)N)NC(=O)[C@H](CC(C)C)NC(=O)[C@H](Cc1ccccc1)NC(=O)[C@H](CCC(=O)O)NC(=O)[C@H](C)NC(=O)[C@H](CC(C)C)NC(=O)[C@H](CCCNC(=N)N)NC(=O)[C@H](CCC(N)=O)NC(=O)[C@@H](NC(=O)[C@H](C)NC(=O)[C@@H]1CSSC[C@H](NC(=O)[C@H](CCCCN)NC(=O)COCCOCCNC(=O)COCCOCCNC(=O)CC[C@H](NC(=O)CCCCCCCCCCCCCCCCCCC(=O)O)C(=O)O)C(=O)N[C@@H](CC(N)=O)C(=O)N[C@@H]([C@@H](C)O)C(=O)N[C@@H](C)C(=O)N[C@@H]([C@@H](C)O)C(=O)N1)[C@@H](C)O)C(=O)N1CCC[C@H]1C(=O)N[C@@H](CO)C(=O)N[C@@H](CO)C(=O)N[C@H](C(=O)N[C@@H](CC(N)=O)C(=O)N[C@H](C(=O)NCC(=O)N[C@@H](CO)C(=O)N[C@@H](CC(N)=O)C(=O)N[C@H](C(=O)N[C@@H](Cc1ccc(O)cc1)C(N)=O)[C@@H](C)O)C(C)C)[C@@H](C)O [Example 19] |  |  |  |  | 0.307 nM | 5.32 nM | 0.556 nM | 20.4 nM |  |  |  |  | 
3 | CC[C@H](C)[C@H](NC(=O)[C@H](C)NC(=O)CNC(=O)[C@H](Cc1ccccc1)NC(=O)[C@H](CC(N)=O)NC(=O)[C@@H]1CCCN1C(=O)[C@H](CO)NC(=O)[C@H](CO)NC(=O)[C@H](Cc1c[nH]cn1)NC(=O)[C@H](CCCNC(=N)N)NC(=O)[C@H](CC(C)C)NC(=O)[C@H](Cc1ccccc1)NC(=O)[C@H](CC(N)=O)NC(=O)[C@H](C)NC(=O)[C@H](CC(C)C)NC(=O)[C@H](CCCNC(=N)N)NC(=O)[C@H](CCC(N)=O)NC(=O)[C@@H](NC(=O)[C@H](C)NC(=O)[C@@H]1CSSC[C@H](NC(=O)[C@H](CCCCN)NC(=O)CC[C@H](NC(=O)CCCCCCCCCCCCCCCCCCC(=O)O)C(=O)O)C(=O)N[C@@H](CC(N)=O)C(=O)N[C@@H]([C@@H](C)O)C(=O)N[C@@H](C)C(=O)N[C@@H]([C@@H](C)O)C(=O)N1)[C@@H](C)O)C(=O)N1CCC[C@H]1C(=O)N[C@@H](CO)C(=O)N[C@@H](CO)C(=O)N[C@H](C(=O)N[C@@H](CC(N)=O)C(=O)N[C@H](C(=O)NCC(=O)N[C@@H](CO)C(=O)N[C@@H](CCC(=O)O)C(=O)N[C@H](C(=O)N[C@@H](Cc1ccc(O)cc1)C(N)=O)[C@@H](C)O)C(C)C)[C@@H](C)O [Example 23] | 8.9 | 8.9 | 8.9 | 8.9 | 0.34 nM | 3.02 nM | 0.871 nM | 21.8 nM | 25.0 | 25.0 | 25.0 |  | 

The remaining lines, values ahead:

Row | Ratio hCT/hAmylin funct. [1, 4] | Ratio hCT/hAmylin funct. [1, 5] | Ratio hCT/hAmylin funct. [1, 6] | Ratio hCT/hAmylin funct. [1, 7] | EC50 [1, 8] | EC50 [2] | IC50 (human amylin receptor) | IC50 [3] | Ratio hCT/hAmylin binding (human amylin receptor; Table 7b, human calcitonin receptor binding IC50 divided by human amylin receptor binding IC50) | Ratio hCT/hAmylin binding (human amylin receptor; Table 7c, human calcitonin receptor binding IC50 divided by human amylin receptor binding IC50) | Ratio hCT/hAmylin binding (human amylin receptor; human binding ratio, included for comparison) | Ratio hCT/hAmylin funct. ([1]; Table 6i, hCTR funct. EC50 / hAmylin-R funct. EC50) | EC50 ([1]; Table 6i, human amylin receptor functional) | SMILES
4 |  |  |  |  | 0.034 nM | 2.21 nM | 0.58 nM | 10.8 nM |  |  |  |  |  | CC[C@H](C)[C@H](NC(=O)[C@H](C)NC(=O)CNC(=O)[C@H](Cc1ccccc1)NC(=O)[C@H](CC(N)=O)NC(=O)[C@@H]1CCCN1C(=O)[C@H](CO)NC(=O)[C@H](CO)NC(=O)[C@H](Cc1c[nH]cn1)NC(=O)[C@H](CCCNC(=N)N)NC(=O)[C@H](CC(C)C)NC(=O)[C@H](Cc1ccccc1)NC(=O)[C@H](CC(N)=O)NC(=O)[C@H](C)NC(=O)[C@H](CC(C)C)NC(=O)[C@H](CCCNC(=N)N)NC(=O)[C@H](CCC(N)=O)NC(=O)[C@@H](NC(=O)[C@H](C)NC(=O)[C@@H]1CSSC[C@H](NC(=O)[C@@H](N)CCCCNC(=O)CC[C@H](NC(=O)CCCCCCCCCCCCCCC(=O)O)C(=O)O)C(=O)N[C@@H](CC(N)=O)C(=O)N[C@@H]([C@@H](C)O)C(=O)N[C@@H](C)C(=O)N[C@@H]([C@@H](C)O)C(=O)N1)[C@@H](C)O)C(=O)N1CCC[C@H]1C(=O)N[C@@H](CO)C(=O)N[C@@H](CO)C(=O)N[C@H](C(=O)N[C@@H](CC(N)=O)C(=O)N[C@H](C(=O)NCC(=O)N[C@@H](Cc1c[nH]cn1)C(=O)N[C@@H](CC(N)=O)C(=O)N[C@H](C(=O)N[C@@H](Cc1ccc(O)cc1)C(N)=O)[C@@H](C)O)C(C)C)[C@@H](C)O [Example 111]
5 | 8.5 | 8.5 | 8.5 | 8.5 |  | 6.55 nM | 0.75 nM | 34.9 nM |  |  |  | 8.5 | 0.773 nM | CC[C@H](C)[C@H](NC(=O)[C@H](C)NC(=O)CNC(=O)[C@H](Cc1ccccc1)NC(=O)[C@H](CC(N)=O)NC(=O)[C@@H]1CCCN1C(=O)[C@H](CO)NC(=O)[C@H](CO)NC(=O)[C@H](Cc1c[nH]cn1)NC(=O)[C@H](CCCNC(=N)N)NC(=O)[C@H](CC(C)C)NC(=O)[C@H](Cc1ccccc1)NC(=O)[C@H](CCC(=O)O)NC(=O)[C@H](C)NC(=O)[C@H](CC(C)C)NC(=O)[C@H](CCCNC(=N)N)NC(=O)[C@H](CCC(N)=O)NC(=O)[C@@H](NC(=O)[C@H](C)NC(=O)[C@@H]1CSSC[C@H](NC(=O)[C@@H](N)CCCCNC(=O)CC[C@H](NC(=O)CC[C@H](NC(=O)CCCCCCCCCCCCCCCCCCC(=O)O)C(=O)O)C(=O)O)C(=O)N[C@@H](CC(N)=O)C(=O)N[C@@H]([C@@H](C)O)C(=O)N[C@@H](C)C(=O)N[C@@H]([C@@H](C)O)C(=O)N1)[C@@H](C)O)C(=O)N1CCC[C@H]1C(=O)N[C@@H](CO)C(=O)N[C@@H](CO)C(=O)N[C@H](C(=O)N[C@@H](CC(N)=O)C(=O)N[C@H](C(=O)NCC(=O)N[C@@H](CCCNC(=N)N)C(=O)N[C@@H](CC(N)=O)C(=O)N[C@H](C(=O)N[C@@H](Cc1ccc(O)cc1)C(N)=O)[C@@H](C)O)C(C)C)[C@@H](C)O [Example 88] (H-K([γGlu-γGlu-C20 diacid])CNTATCATQRLAEFLRHSSPNFGAIPSSTNVGRNTY-NH2; disulfide 2-7)
